Where no end group is shown, it is not given here. [ ]: non-standard residue; d: D form.
Columns and labels:
[1] = system: release of sensory neuropeptides from the trachea of rats; assay: In vitro release of sensory neuropeptides (SP, CGRP, SOM) from the trachea of rats, RIA; parameters: species or system rat
Experimental: After bleeding out, the tracheas of two rats each were removed, placed into an organ bath (1.8 ml) and Krebs solution saturated with oxygen (95% of oxygen and 5% of carbon dioxide) was bubbled through it at 37° C. for 60 minutes (with a rate of 1 ml/min). After stopping the flow, the bath solution was changed 3 times (pre-stimulated—stimulated—post-stimulated) for 8 minutes. The release of sensory neuropeptides from the tissue samples was induced by electric (40 V, 0.1 ms, 10 Hz, 120 s) and chemical (10^−7 M of capsaicin) stimulation, in the presence or absence of TT-232 (200 nM, 500 nM). The fractions were collected in ice-cold tubes; the wet weights of tracheas were measured. The concentrations of substance P (SP), calcitonin gene-related peptide (CGRP) and somatostatin (SOM) were determined by using a specific radioimmunoassay (RIA) developed in our laboratory and expressed as the amount of peptide released from one g of tissue. The limits of measurements were: 2 fmol/tube for SP; 1 fmol/tube for CGRP; and 2 fmol/tube for SOM [Németh, J.: Acta Physiol. Hung. 84, 313-315 (1996); Helyes, Zs.: Br. J. Pharmacol. 121, 613-615 (1997)].

rats = assay: Bradykinin-induced non-neurogenic inflammation (Evans blue extravasation) after chronic denervation; type: in vivo, rat
Experimental: After chronic denervation (see 1.2.1.), each group of 5 rats received various doses (1, 2.5, 5, 10 or 20 μg, respectively, i.v.) of TT-232 and simultaneously Evans blue (50 mg/kg i.v.). Ten minutes later, bradykinin was injected underneath the plantar skin of the lower limbs of the rats. After 15 minutes the animals were bled and the amount of the extravasated Evans blue (expressed as […] related to the wet tissue) was determined as.described above (1.1.).

Wistar rats [2] = assay: 0.5% dextran-induced non-neurogenic inflammation (foot swelling, plethysmometer) after chronic denervation; type: in vivo, rat
Experimental: This test is based on the fact that a non-neurogenic, so-called clearly chemical inflammation can be induced by chemical excitation (e.g. by dextran, carrageenin, formalin) on a chronically denervated body area at least 5 days following the transsection of the nerve. These chemical agents release inflammation-inducing substances (histamine, bradykinin, PAF, prostaglandins and leucotrienes) from immunocytes, chiefly from mast cells.
Dextran solution (0.1 ml, 0.5%) is administered into both feet, underneath the plantar skin of Wistar rats (5 to 7 animals in each group) anaesthetized by nembutal (40 mg/kg i.v.) 5 days after bilateral denervation (transsection of the saphenous and sciatic nerves) of the lower limbs. The pretreated animals received somatostatin (SS), ocreotide or TT-232 (10 μg/kg i.p.) 10 minutes earlier. Before the administration of dextran (0 minute value), then after 10, 20 and 30 minutes, respectively, the swelling of the feet was measured by using a plethysmometer (Ugo Basil). Dextran elicits the so-called clearly chemical inflammation in the feet deprived of nerve supply (innervation) through the transmitters released from the mast cells.
A dose/effect ratio was determined for each substance.

Wistar rats [3] = assay: 1% mustard oil-induced neurogenic inflammation (Evans blue plasma extravasation, foot skin); type: in vivo, rat
Experimental: Thirty minutes after acute bilateral denervation of the lower limbs (transsection of the saphenous and sciatic nerves), 50 mg/kg of Evans blue dye was administered to the tail vein of nembutal-anaesthetized (pentobarbital, 40 mg/kg i.p.) Wistar rats (150-220 g body weight; 5 to 7 animals in each group). […] The mustard oil induces a so-called neurogenic inflammation by the selective stimulation of the peripheral endings of CSPAN's and by releasing the mediators being present therein (chiefly tachykinins and CGRP); this neurogenic inflammation appears as a vasodilatation in the area of arterioles and in the form of a plasma extravasation at the venular side. Since the dye Evans blue is bound to serum albumin in the vascular bed, its precipitation and accumulation in the upper skin surface of foot are proportional to the extent of plasma extravasation. Thus, the quantitative determination of intensity of the inflammation becomes possible. After the painting with mustard oil, the animals were bled, the foot dorsum skins were cut out and their weights were determined. The amount of dye extracted during 72 hours of incubation in formamide was determined at 620 nm on a spectrophotometer (Spectromon 195). The amount (expressed as μg) of the extravasated Evans blue related to one g of wet tissue was calculated by means of the following formula:
Evans blue (μg/g)=E×V×k/m
E is the light absorption of the solution, V means the volume (ml) of the solution, m is the weight […] of the skin cut out from the foot dorsum skin; and k is a constant determined on the basis of a dilution series, which is characteristic of the dye solution.

unanaesthetized animals = assay: Mechanical nociceptive threshold, Randall-Selitto test after carrageenin; type: in vivo; conditions: 30 minutes after carrageenin
Experimental: The mechanical nociceptive threshold was investigated by using the Randall-Selitto test (Ugo Basil equipment) on unanaesthetized animals. Before the beginning of the experiment, the animals were tested several times to provide their adaptation to the experimental conditions. The animals received TT-232 in various concentrations (1.25, 2.5, 5, 10 μg i.v.) and after 15 minutes, carrageenin (0.1 ml of 1% solution) was injected into the plantar skin of the lower limbs of the animals.

[4] = capsaicin stimulation, 200 nM TT-232
[5] = capsaicin stimulation, 500 nM TT-232
[6] = electrical stimulation, 500 nm TT-232

What does the source list for “D-Phe-Cys-Tyr-D-Trp-Lys-Cys-Thr-NH2 ([dF]CY[dW]KCT-NH2; cysteine pairing not given here) [TT-232]”?
decrease of capsaicin-induced SOM release [1, 4]: 48%; decrease of capsaicin-induced SP release [1, 4]: 44%; inhibition of capsaicin-induced CGRP release [1, 5]: 27%; inhibition of capsaicin-induced SOM release [1, 5]: 74%; inhibition of capsaicin-induced SP release [1, 5]: 79%; inhibition of CGRP release [1, 6]: 48%; inhibition of SOM release [1, 6]: 42%; inhibition of SP release [1, 6]: 36%; amount of SOM released ([1]; electrical stimulation, 500 nm TT-232, without TT-232 0.51 fmol/mg): 0.39 fmol/mg; amount of CGRP released ([1]; electrical stimulation, 500 nm TT-232, without TT-232 0.69 fmol/mg): 0.36 fmol/mg; amount of SP released ([1]; electrical stimulation, 500 nm TT-232, without TT-232 6 fmol/mg): 3.8 fmol/mg; basal, non-stimulated release of the neuropeptides (in words) ([1]; no stimulation): not affected; Evans blue extravasation (rats; TT-232 1 μg/kg i.v., control (buffer) 127.35 ± 7.11): 98.21 ± 7.44 µg/kg; Evans blue extravasation (rats; TT-232 2.5 μg/kg i.v.): 85.02 ± 7.33 µg/kg; Evans blue extravasation (rats; TT-232 5 μg/kg i.v.): 81.95 ± 7.64 µg/kg; Evans blue extravasation (rats; TT-232 10 μg/kg i.v.): 86.31 ± 8.74 µg/kg; Evans blue extravasation (rats; TT-232 20 μg/kg i.v.): 77.4 ± 4.59 µg/kg; prevention of dextran-induced non-neurogenic inflammation (in words) (Wistar rats [2]; 10 μg/kg, even 40 minutes following the pretreatment): significantly prevented; foot swelling % (Wistar rats [2]; Table 2.a, 0.5 μg/kg, 10 minutes): 27.63 ± 3.5%; foot swelling % (Wistar rats [2]; Table 2.a, 0.5 μg/kg, 20 minutes): 39.94 ± 3.07%; foot swelling % (Wistar rats [2]; Table 2.a, 0.5 μg/kg, 30 minutes): 41.33 ± 5.95%; foot swelling % (Wistar rats [2]; Table 2.a, 1.0 μg/kg, 10 minutes): 20.51 ± 2.92%; foot swelling % (Wistar rats [2]; Table 2.a, 1.0 μg/kg, 20 minutes): 38.07 ± 3.12%; foot swelling % (Wistar rats [2]; Table 2.a, 1.0 μg/kg, 30 minutes): 44.32 ± 3.18%; foot swelling % (Wistar rats [2]; Table 2.a, 2.5 μg/kg, 10 minutes): 20.54 ± 5.16%; foot swelling % (Wistar rats [2]; Table 2.a, 2.5 μg/kg, 20 minutes): 33.02 ± 4.46%; foot swelling % (Wistar rats [2]; Table 2.a, 2.5 μg/kg, 30 minutes): 39.59 ± 4.76%; foot swelling % (Wistar rats [2]; Table 2.a, 5.0 μg/kg, 10 minutes): 17.29 ± 3.13%; foot swelling % (Wistar rats [2]; Table 2.a, 5.0 μg/kg, 20 minutes): 27.81 ± 2.39%; foot swelling % (Wistar rats [2]; Table 2.a, 5.0 μg/kg, 30 minutes): 35.95 ± 2.97%; foot swelling % (Wistar rats [2]; Table 2.a, 10 μg/kg, 10 minutes): 17.60 ± 2.05%; foot swelling % (Wistar rats [2]; Table 2.a, 10 μg/kg, 20 minutes): 27.59 ± 2.5%; foot swelling % (Wistar rats [2]; Table 2.a, 10 μg/kg, 30 minutes): 36.40 ± 1.71%; foot swelling % (Wistar rats [2]; Table 2.a, 20 μg/kg, 10 minutes): 19.56 ± 1.71%; foot swelling % (Wistar rats [2]; Table 2.a, 20 μg/kg, 20 minutes): 29.73 ± 1.7%; foot swelling % (Wistar rats [2]; Table 2.a, 20 μg/kg, 30 minutes): 37.67 ± 2.33%; prevention of foot-swelling compared with diclofenac and meloxicam (in words) (Wistar rats [2]; Table 2.a, TT-232 concentration a thousandth part of the others): more effectively; foot swelling % (Wistar rats [2]; Table 2, 10 μg/kg i.p. 10 min before dextran, 10 minutes, control 32.97): 24.4%; foot swelling % (Wistar rats [2]; Table 2, 10 μg/kg i.p. 10 min before dextran, 20 minutes, control 49.695): 34.39%; foot swelling % (Wistar rats [2]; Table 2, 10 μg/kg i.p. 10 min before dextran, 30 minutes, control 56.68): 29.43%; Decrease % (Evans blue extravasation vs control) (Wistar rats [3]; 20 μg/kg i.p., 1% mustard oil): 63.616%; Evans blue extravasation (Wistar rats [3]; 20 μg/kg i.p., 1% mustard oil on feet, control 169.525): 61.68 µg/g; inhibition of mustard oil-induced neurogenic inflammation (in words) (Wistar rats [3]; 20 μg/kg, 20 minutes after i.p. administration): significantly inhibited; equipotent dose ratio vs somatostatin (times lower dose) (Wistar rats [3]; dose/effect relation, FIG. 2): ~8 times; highest antiinflammatory effect relative to highest effect of somatostatin (Wistar rats [3]; dose/effect relation, FIG. 2): double; inhibition of inflammation (Wistar rats [3]; intravenous dose of 2.5 μg/kg, 2 hours after administration (FIG. 2.a)): 35%; increase in the nociceptive threshold (analgetic effect) (unanaesthetized animals; 1.25 μg i.v.): 30%; increase in the nociceptive threshold (analgetic effect) (unanaesthetized animals; 2.5 μg i.v.): 37%; increase in the nociceptive threshold (analgetic effect) (unanaesthetized animals; 5 μg i.v.): 50%; increase in the nociceptive threshold (analgetic effect) (unanaesthetized animals; 10 μg i.v.): 60%
